Data on one compound can be found in EP0571390B1, “THE DELAY, PREVENTION AND/OR REVERSAL OF CELL SENESCENCE” (priority 1990, dated 1992).

Assay [1] relates to RR cells (human foreskin fibroblasts). In words: Growth and lifespan of RR cells passaged in medium with carnosine. The assay is classed as cell-based. Particulars: for fibroblast morphology: after many population doublings; for time still growing: continuous. How it is done: (§1) Cells were grown in Dulbecco's modification of Eagles' Minimal Essential Medium, with 10% fetal calf serum. When cells became confluent and ceased division, they were harvested with trypsin - versene, and dispersed to form a suspension of single cells which was counted with a Coulter Counter. Depending on the cell yield the culture was split in a ratio of 1:2, 1:4, or 1:8. These split ratios correspond approximately to one, two or three cell population doublings when the new cultures become confluent. The exact number of population doublings is calculated from the cell yield at each sub-culture.
Initially, human foreskin fibroblasts were obtained from Dr Roger Reddel (Children's Medical Research Foundation) at passage 5, flasks were set up with differing concentrations of carnosine (10mM, 20mM, 30mM and 50mM) together with control cultures. Each of the cultures were passaged in the same medium.

Assay [2] has as its system MRC-5 cells. Kind of assay: Longevity experiment, MRC-5 cells grown continuously in medium supplemented with carnosine. It is filed as cell-based, human. Particulars: for longevity: continuous, controls ceased growth at 57 and 61 PDs. How it is done: as §1
MRC-5 is a very well characterised fibroblast strain derived from foetal lung tissue. Early passage cultures were obtained from the National Institute for Biological Standards and Control, South Mimms, Herts, U.K. Longevity experiments were set up using normal medium and medium supplemented with 20 and 30mM carnosine (medium was the same as for RR cells above). […] The control cells became senescent at the expected time, namely after about 50 - 55 PDs, and they ceased growth at 57 and 61 PDs. […] It should be noted that the PD level is a logarithmic measure of growth, so an increase of 10 PDs represents an increase in cell mass of 2^10, or x 1,000.

Assay [3] deals with MRC-5 cells. In words: Transfer of senescent MRC-5 cells from normal medium to carnosine medium at PD level 55. It is filed as cell-based, human. Here is the method:
as §1
Remarkably, these cells are continuing to grow after 400 days (Figure 8), whereas cells grown continuously in carnosine died out after 139 days. Thus it appears that transfer of senescent cells to carnosine can reverse the senescent phenotype and allow extended growth of cells with a near normal morphology (Figures 10, 11 and 12).

Setting [4] is: transferred at PD level 55 to 20mM carnosine.
[5] abbreviates: transferred at PD level 55 to 30mM carnosine.

As to `NCCC(=O)N[C@@H](Cc1c[nH]cn1)C(=O)O` [carnosine, β-alanyl-L-histidine], the growth rate result is “grew as rapidly as control cultures” in assay [1] (10mM carnosine added to standard medium, versus control cultures); “grew as rapidly as control cultures” in assay [1] (20mM carnosine added to standard medium, versus control cultures); “some reduction in growth rate” in assay [1] (30mM carnosine); “a great reduction” in assay [1] (50mM carnosine). Besides, the fibroblast morphology entry in assay [1] (30mM carnosine) and in assay [1] (50mM carnosine) was “retained their characteristic fibroblast morphology” in each case. For the same compound, the time still growing in assay [1] (30mM carnosine) and in assay [1] (50mM carnosine) was more than 500 days each time. Also, in assay [2] (20mM carnosine (Figure 7)), the “PD level of cells growing continuously” value was 67 PD. Further, the “growth rate in the initial stage” value in assay [2] (20mM carnosine versus normal medium) and in assay [2] (30mM carnosine versus normal medium) was “little difference in growth rate” throughout. Moreover, the longevity result in assay [2] (20mM carnosine) and in assay [2] (30mM carnosine) was “very significantly increased longevity” each time. Moreover, in assay [2] (as the end of the culture lifespan approaches), the “number of cells per flask” value is given as “significantly increases the number of cells per flask”. In addition, in assay [2] (carnosine medium, Figure 7 compared with Figure 6), the “morphological features of senescence” value was “delayed the normal morphological features of senescence”. Further, the “time until cells died out” value in assay [2] (cells grown continuously in carnosine) is on record as 139 days. For the same compound, the “PDs reached after transfer” value in assay [3] (20mM carnosine, 146 days after transfer (Figure 11)) amounted to 64 PDs; in assay [3] (30mM carnosine, 146 days after transfer (Figure 12)), 63 PDs. The “effect in increasing cell yield” value in assay [3] (cells transferred from normal medium to 30mM carnosine medium (Figure 9)) is on record as “particularly striking”. Further, the phenotype after transfer result in assay [3] (setting [4]) is on record as “continued to grow slowly, but with a rejuvenated phenotype”; in assay [3] (setting [5]), “continued to grow slowly, but with a rejuvenated phenotype”. Moreover, the “time continuing to grow” value in assay [3] (setting [4]) and in assay [3] (setting [5]) was more than 400 days each time.
